Experimental data from US20190119282A1, “IMIDAZOPYRIDAZINES USEFUL AS INHIBITORS OF THE PAR-2 SIGNALING PATHWAY” (Vertex Pharmaceuticals Incorporated, priority 2013, published 2019).

What was measured:
Conditions in all cases: HT-29 cells
[1] = target: T1, PAR2 (HT-29 cells, SLIGKV activation) (Homo sapiens, UniProt P55085); test: Ca FLIPR TETRA assay, ANTAGONIST mode, stimulation with 8 μM SLIGKV; format: cell-based
T1 construct: host or cells: HT-29 cells
T1 sequence (P55085 26-397): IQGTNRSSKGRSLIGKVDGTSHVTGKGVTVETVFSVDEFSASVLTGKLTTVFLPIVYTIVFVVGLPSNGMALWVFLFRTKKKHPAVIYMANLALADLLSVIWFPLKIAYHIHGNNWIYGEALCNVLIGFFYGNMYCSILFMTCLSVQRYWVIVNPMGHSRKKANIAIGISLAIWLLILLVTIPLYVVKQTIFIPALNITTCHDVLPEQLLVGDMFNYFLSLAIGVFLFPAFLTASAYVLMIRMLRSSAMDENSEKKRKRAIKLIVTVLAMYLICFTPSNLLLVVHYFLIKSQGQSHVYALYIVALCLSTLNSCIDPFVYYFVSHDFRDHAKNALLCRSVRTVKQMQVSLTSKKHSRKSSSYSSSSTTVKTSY
In short: (§1)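 HT-29 cells in 1% FBS/McCoy's overnight, loaded with Calcium 5 dye; compounds added and read first for intrinsic Ca2+ activation, then incubated 30 min at r.t. Antagonism read on FLIPR Tetra after stimulation with final 8 μM SLIGKV, 3.1 U/mL trypsin, 1 U/mL thrombin or 0.6 μM UTP.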

[2] = target: T2, PAR2 (HT-29 cells, trypsin activation) (Homo sapiens, UniProt P55085); test: Ca FLIPR TETRA assay, ANTAGONIST mode, stimulation with 3.1 U/mL trypsin; format: cell-based
T2 construct: host or cells: HT-29 cells
T2 sequence (P55085 26-397): T1 sequence (P55085 26-397)
In short: as §1

[3] = test system: Thrombin-stimulated Ca2+ response in HT-29 cells; test: Ca FLIPR TETRA assay, ANTAGONIST mode, stimulation with 1 U/mL Thrombin; format: cell-based, human
In short: as §1

[4] = test system: UTP-stimulated Ca2+ response in HT-29 cells; test: Ca FLIPR TETRA assay, ANTAGONIST mode, stimulation with 0.6 μM UTP; format: cell-based, human
In short: as §1

[5] = antagonist mode, stimulation with 8 μM SLIGKV
[6] = antagonist mode, stimulation with 3.1 U/mL trypsin
[7] = Homo sapiens, antagonist mode, stimulation with 1 U/mL Thrombin
[8] = Homo sapiens, antagonist mode, stimulation with 0.6 μM UTP
[9] = stimulation with 3.1 U/mL trypsin
[10] = Homo sapiens, stimulation with 1 U/mL Thrombin
[11] = Homo sapiens, stimulation with 0.6 μM UTP
[12] = antagonist mode, 3.1 U/mL trypsin
[13] = Homo sapiens, antagonist mode, 1 U/mL Thrombin
[14] = Homo sapiens, antagonist mode, 0.6 μM UTP

SMILES | IC50 [1, 5] [nM] | IC50 [2, 6] [nM] | IC50 [3, 7] [nM] | IC50 [4, 8] [nM] | also measured
CC(C)c1cc(-c2ccc(Cl)c(F)c2)nn2cc(C(=O)N3CCNC(=O)C3(C)C)nc12 [Compound I-354] | 1.2 | 1.3 | > 1000 | > 1000 | 
CC(C)c1cc(-c2ccc(F)c(C3CC3)c2)nn2cc(C(=O)N3CCNC(=O)C3(C)C)nc12 [Compound I-476] | 660 | 965 | > 1000 | > 1000 | 
CC1(C)CN(C(=O)[C@H]2CC[C@@H](C(=O)O)CC2)CCN1C(=O)c1cn2nc(-c3ccc(F)cc3)cc(-c3ccc(F)cc3)c2n1 [Compound I-524] | 1.4 | 1.7 | > 1000 | > 1000 | 
CC(C)c1cc(-c2ccc(F)cc2F)nn2cc(C(=O)N3CCNC(=O)C3(C)C)nc12 [Compound I-477] | 43 | 93 | > 1000 | > 1000 | 
C[C@H]1CN(C(=O)c2cn3nc(-c4ccc(F)cc4)cc(C(F)(F)F)c3n2)CCN1C(=O)OCc1ccccn1 [Compound I-11, 2-Pyridylmethyl (2S)-4-[6-(4-fluorophenyl)-8-(trifluoromethyl)-imidazo-[1,2-b]pyridazine-2-carbonyl]-2-methyl-piperazine-1-carboxylate] |  |  |  |  | IC50 ([1]; stimulation with 8 μM SLIGKV): 65 nM; IC50 [2, 9]: 300 nM; IC50 [3, 10]: 9600 nM; IC50 [4, 11]: > 5000 nM
C=C(C)c1cc(-c2ccc(F)cc2)nn2cc(C(=O)N3CCN(C)C(=O)C3(C)C)nc12 [Compound I-212] | 90.3 | 54.7 | > 1000 | > 1000 | 
CC(C)c1cc(-c2ccc(F)cc2)nn2cc(C(=O)N3CCN(C(=O)c4ccccn4)CC3(C)C)nc12 [Compound I-320] | 7.1 | 14.2 | > 1000 | > 1000 | 
CC(C)c1cc(-c2ccc(F)cc2)nn2cc(C(=O)N3CCN(C(=O)C4(O)CCOCC4)CC34COC4)nc12 [Compound I-26, [6-(4-fluorophenyl)-8-isopropyl-imidazo[1,2-b]pyridazin-2-yl]-[8-(4-hydroxytetrahydropyran-4-carbonyl)-2-oxa-5,8-diazaspiro[3.5]nonan-5-yl]methanone] |  |  |  |  | IC50 ([1]; stimulation with 8 μM SLIGKV): 4400 nM; IC50 [2, 9]: 9100 nM; IC50 [3, 10]: 28000 nM; IC50 [4, 11]: 31000 nM
CC1(C)C(=O)NCCN1C(=O)c1cn2nc(-c3ccc(F)cc3)cc(-c3cccnc3)c2n1 [Compound I-568] |  |  |  |  | IC50 ([1]; antagonist mode, 8 μM SLIGKV): 520 nM; IC50 [2, 12]: 620 nM; IC50 [3, 13]: > 1000 nM; IC50 [4, 14]: > 1000 nM
CC(C)c1cc(-c2ccc(F)cc2)nn2cc(C(=O)N3CCN(C(=O)OC(C)(C)C)CC34COC4)nc12 [Compound I-23, tert-butyl 5-[6-(4-fluorophenyl)-8-isopropyl-imidazo[1,2-b]pyridazine-2-carbonyl]-2-oxa-5,8-diazaspiro[3.5]nonane-8-carboxylate] |  |  |  |  | IC50 ([1]; stimulation with 8 μM SLIGKV): 130 nM; IC50 [2, 9]: 300 nM; IC50 [3, 10]: > 50000 nM; IC50 [4, 11]: > 50000 nM
Cc1cc(-c2cc(C(C)C)c3nc(C(=O)N4CCN(C(=O)c5ccccn5)CC4(C)C)cn3n2)ccc1F [Compound I-379] | 9.4 | 10.5 | > 1000 | > 1000 | 
CCCC(=O)N1CCN(C(=O)c2cn3nc(-c4ccc(F)cc4)cc(C(C)C)c3n2)C[C@@H]1C [Compound I-124] |  |  |  |  | IC50 ([1]; stimulation with 8 μM SLIGKV): 26 nM; IC50 [2, 9]: 160 nM; IC50 [3, 10]: 15000 nM; IC50 [4, 11]: 13000 nM
CC(O)C(=O)N1CCN(C(=O)c2cn3nc(-c4ccc(F)cc4)cc(C(C)C)c3n2)C[C@@H]1C (stereo partly shown) [Compound I-119] |  |  |  |  | IC50 ([1]; stimulation with 8 μM SLIGKV): 200 nM; IC50 [2, 9]: 2100 nM; IC50 [3, 10]: > 50000 nM; IC50 [4, 11]: > 50000 nM
CC(C)(C)c1cc(-c2ccc(F)cc2)nn2cc(C(=O)N3CCN(C(=O)C45CC(C(=O)O)(C4)C5)CC3(C)C)nc12 [Compound I-559] |  |  |  |  | IC50 ([1]; antagonist mode, 8 μM SLIGKV): 20 nM; IC50 [2, 12]: 51.5 nM; IC50 [3, 13]: > 1000 nM; IC50 [4, 14]: > 1000 nM
CC(C)c1cc(-c2ccc(F)cc2)nn2cc(C(=O)N3CCN(C(=O)[C@H](O)C4CCCCC4)[C@@H](C)C3)nc12 [Compound I-114] |  |  |  |  | IC50 ([1]; stimulation with 8 μM SLIGKV): 0.5 nM; IC50 [2, 9]: 0.6 nM; IC50 [3, 10]: 7700 nM; IC50 [4, 11]: 8700 nM
CNC(=O)[C@@H]1CCN(C(=O)c2cn3nc(-c4ccc(F)cc4)cc(C(F)(F)F)c3n2)C[C@@H]1C [Compound I-95] |  |  |  |  | IC50 ([1]; stimulation with 8 μM SLIGKV): 1600 nM; IC50 [2, 9]: 7200 nM; IC50 [3, 10]: > 50000 nM; IC50 [4, 11]: 43000 nM
CC(C)(C)c1cc(-c2ccc(F)cc2)nn2cc(C(=O)N3CCN(C(=O)CCC#N)CC3(C)C)nc12 [Compound I-566] |  |  |  |  | IC50 ([1]; antagonist mode, 8 μM SLIGKV): 3 nM; IC50 [2, 12]: 5.1 nM; IC50 [3, 13]: > 1000 nM; IC50 [4, 14]: > 1000 nM
CC(C)(C)c1cc(-c2ccc(F)c(Cl)c2)nn2cc(C(=O)N3CCNC(=O)C3(C)C)nc12 [Compound I-438] | 1.5 | 2.6 | > 1000 | > 1000 | 
Cc1cc(-c2ccc(F)cc2)nn2cc(C(=O)N3CCCCCC3)nc12 [Compound I-6, Azepan-1-yl-[6-(4-fluorophenyl)-8-methyl-imidazo[1,2-b]pyridazin-2-yl]methanone] |  |  |  |  | IC50 ([1]; stimulation with 8 μM SLIGKV): 1280 nM; IC50 [2, 9]: 2500 nM; IC50 [3, 10]: 10000 nM; IC50 [4, 11]: 11000 nM

Continued, in another order:

IC50 [1, 5] [nM] | IC50 [2, 6] [nM] | IC50 [3, 7] [nM] | IC50 [4, 8] [nM] | SMILES | also measured
0.2 | 0.3 | > 1000 | > 1000 | CC(C)c1cc(-c2ccc(Cl)cc2)nn2cc(C(=O)N3CCN(C(=O)[C@H]4C[C@](O)(C(F)(F)F)C4)CC3(C)C)nc12 [Compound I-542] | 
3.3 | 4.6 | > 1000 | > 1000 | CC(C)c1cc(-c2ccc(C(F)(F)F)cc2)nn2cc(C(=O)N3CCN(C(=O)c4nc[nH]n4)CC3(C)C)nc12 [Compound I-279] | 
5.4 | 4.5 | > 1000 | > 1000 | CCN1CCN(C(=O)c2cn3nc(-c4ccc(F)cc4)cc(C(C)(C)C)c3n2)C(C)(C)C1=O [Compound I-211] | 
1.1 | 1.9 |  |  | COC(=O)C1CC(C(=O)N2CCN(C(=O)c3cn4nc(-c5ccc(Cl)cc5)cc(C(C)C)c4n3)C(C)(C)C2)C1 (stereo not shown) [Compound I-545] | IC50 ([3]; antagonist mode, stimulation with 1 U/mL Thrombin): > 1000 nM; IC50 ([4]; antagonist mode, stimulation with 0.6 μM UTP): > 1000 nM
0.7 | 1 | > 1000 | > 1000 | CC(C)(C)c1cc(-c2ccc(F)cc2)nn2cc(C(=O)N3CCN(C(=O)c4ccon4)CC3(C)C)nc12 [Compound I-203] | 
4.8 | 6.5 | 880 | > 1000 | Cc1cccc(-c2cc(C(C)(C)C)c3nc(C(=O)N4CCN(C(=O)c5ccccn5)CC4(C)C)cn3n2)c1 [Compound I-411] | 
1.3 | 2.1 | > 1000 | > 1000 | CC(C)(C)c1cc(-c2ccc(F)c(Cl)c2)nn2cc(C(=O)N3CCN(C(=O)c4ccccn4)CC3(C)C)nc12 [Compound I-458] | 
14.8 | 39.8 | > 1000 | > 1000 | Cc1nnc(C(=O)N2CCN(C(=O)c3cn4nc(C5CCC(F)(F)CC5)cc(C(C)(C)C)c4n3)C(C)(C)C2)o1 [Compound I-461] | 
0.4 | 0.6 | 760 | 950 | CC(C)(C)c1cc(-c2ccc(F)cc2)nn2cc(C(=O)N3CCN(C(=O)[C@H]4C[C@@](C)(O)C4)CC3(C)C)nc12 [Compound I-319] | 
17 | 12 | > 1000 | > 1000 | CC(C)c1cc(-c2ccc(F)cc2)nn2cc(C(=O)N3CCN(C(=O)c4c[nH]cn4)CC3(C)C)nc12 [Compound I-326] | 
47.2 | 44.5 | > 1000 | > 1000 | Cc1nc(C(=O)N2CCN(C(=O)c3cn4nc(-c5ccc(F)cc5)cc(C(C)(C)C)c4n3)C(C)(C)C2)n(COP(=O)(O)O)n1 [Compound I-481] | 
1.7 | 2.2 | > 1000 | > 1000 | Cc1ncc(C(=O)N2CCN(C(=O)c3cn4nc(-c5ccc(C(F)(F)F)cc5)cc(C(C)(C)C)c4n3)C(C)(C)C2)[nH]1 [Compound I-423] | 
0.4 | 0.7 | > 1000 | > 1000 | Cc1ccc(-c2cc(C(C)(C)C)c3nc(C(=O)N4CCN(C(=O)[C@H]5C[C@@](C)(O)C5)CC4(C)C)cn3n2)cc1 [Compound I-396] | 
4 | 5.1 | 673 | 360 | CC(C)(C)c1cc(-c2ccccc2)nn2cc(C(=O)N3CCNC(=O)C3(C)C)nc12 [Compound I-348] | 
117 | 157 | > 5000 | > 5000 | C[C@@H]1CN(c2cc(-c3ccc(F)cc3)nn3cc(C(=O)N4CCN(C(=O)C(C)(C)O)CC4(C)C)nc23)C[C@H](C)O1 [Compound I-185] | 
